Measurements: publication PMC8850660, “The P300 acetyltransferase inhibitor C646 promotes membrane translocation of insulin receptor protein substrate and interaction with the insulin receptor” (The Journal of Biological Chemistry, 2022)

How the values were obtained:
[1] = target: T1, insulin receptor (InsR Kinase Assay) (Homo sapiens, UniProt P06213); test: InsR kinase assay, ADP-Glo (ADP production); assay type: biochemical; conditions: activator; 50 μM ATP, substrate peptide, room temperature, 60 min
T1 construct: commercial kinase from InsR Kinase Assay (Promega)
T1 sequence (P06213 1011-1382 limits assumed): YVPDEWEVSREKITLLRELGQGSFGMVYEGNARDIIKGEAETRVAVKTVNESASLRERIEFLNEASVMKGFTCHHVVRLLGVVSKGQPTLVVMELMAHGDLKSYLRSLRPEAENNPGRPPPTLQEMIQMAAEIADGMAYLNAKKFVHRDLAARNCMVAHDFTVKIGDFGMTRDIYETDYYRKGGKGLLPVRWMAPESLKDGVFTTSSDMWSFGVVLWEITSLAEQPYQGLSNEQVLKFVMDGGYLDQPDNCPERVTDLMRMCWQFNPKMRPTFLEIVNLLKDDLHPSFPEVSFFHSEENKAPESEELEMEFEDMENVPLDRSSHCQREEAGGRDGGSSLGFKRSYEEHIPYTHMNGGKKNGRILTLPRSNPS

[2] = target: T2, IRβ (unphosphorylated beta subunit of insulin receptor) (Homo sapiens, UniProt P06213); test: surface plasmon resonance (Biacore T200), IRβ immobilised on CM5; assay type: binding
T2 construct: gene INSR; beta subunit, commercial recombinant protein; unphosphorylated; immobilised on CM5 chip
T2 sequence (P06213 763-1382 limits assumed): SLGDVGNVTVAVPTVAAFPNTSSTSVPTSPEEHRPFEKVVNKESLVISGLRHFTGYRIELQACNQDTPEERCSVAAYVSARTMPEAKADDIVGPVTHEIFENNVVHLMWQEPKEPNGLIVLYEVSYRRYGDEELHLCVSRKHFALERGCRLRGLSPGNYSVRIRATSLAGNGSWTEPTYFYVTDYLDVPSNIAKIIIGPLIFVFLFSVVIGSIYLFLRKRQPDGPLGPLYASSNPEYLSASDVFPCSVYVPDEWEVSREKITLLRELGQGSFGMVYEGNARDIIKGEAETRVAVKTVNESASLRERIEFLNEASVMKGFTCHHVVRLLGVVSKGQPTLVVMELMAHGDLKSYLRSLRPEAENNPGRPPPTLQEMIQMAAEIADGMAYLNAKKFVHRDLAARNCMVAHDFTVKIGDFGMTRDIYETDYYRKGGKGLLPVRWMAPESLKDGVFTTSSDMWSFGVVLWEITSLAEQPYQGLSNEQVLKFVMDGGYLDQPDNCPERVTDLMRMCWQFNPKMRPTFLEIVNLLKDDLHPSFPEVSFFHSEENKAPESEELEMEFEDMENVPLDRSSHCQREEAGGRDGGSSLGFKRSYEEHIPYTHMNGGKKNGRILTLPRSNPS

[3] = target: T1, insulin receptor (InsR Kinase Assay); test: InsR kinase assay, ADP-Glo (ADP production); assay type: biochemical; conditions: 50 μM ATP, substrate peptide, room temperature; turnover to ADP only

| Compound | % increase of kinase activity at 100 nM [1] [%] | Kd [2] [µM] | InsR kinase assay, ADP-Glo (ADP production) [3] |
| --- | --- | --- | --- |
| CC1=NN(c2ccc(C(=O)O)cc2)C(=O)C1=Cc1ccc(-c2cc(C)c(C)cc2[N+](=O)[O-])o1 [C646] | 50 | 4.34 |  |
| Nc1ncnc2c1ncn2[C@@H]1O[C@H](COP(=O)(O)OP(=O)(O)OP(=O)(O)O)[C@@H](O)[C@H]1O [ATP] |  |  | found a linear curve of ADP production (consumption of ATP by insulin receptor) |
